The text below walks through data of paper PMC8234192 (2021).

This assay has as its system dsDNA (69 bp) (DNA, duplex) GATACGAGCATCGTGTAGGCATCGTAGGTAATACGGATGTGCTAGCTTATTGAATTCAGAGATCTATGC/GCATAGATCTCTGAATTCAATAAGCTAGCACATCCGTATTACCTACGATGCCTACACGATGCTCGTATC
Kind of assay: fluorescence molecular brightness titration (FCS set-up). To be noted: 137 mM Na+, 2.7 mM K+, PBS pH 7.4, 0.002% Tween20, 25 °C, 20 nM YOYO-1, mono-intercalation step, 3.5 bp per site.

In the case of `CN1C(=Cc2cc[n+](CCC[N+](C)(C)CCC[N+](C)(C)CCC[n+]3ccc(C=C4Oc5ccccc5N4C)c4ccccc43)c3ccccc23)Oc2ccccc21`, the K1 is recorded as 3.36 ± 0.43 × 10^7 M^-1.
